Experimental data as given in the NIST ThermoML archive (doi:10.1021/je700261b).

Assay: xn = mol fraction of the nth substance listed
Conditions: Liquid

CCCCO [butan-1-ol] + O=C=O
Conditions | mass density [kg/m3]
332.94 K, 21042 kPa, x2 = 0.9698 | 765.72
332.94 K, 21997 kPa, x2 = 0.9698 | 776.05
332.94 K, 22013 kPa, x2 = 0.0251 | 799.22
332.94 K, 22983 kPa, x2 = 0.9698 | 785.85
332.94 K, 23023 kPa, x2 = 0.0251 | 800
332.94 K, 23838 kPa, x2 = 0.9698 | 793.78
332.94 K, 24078 kPa, x2 = 0.0251 | 800.8
332.94 K, 25033 kPa, x2 = 0.0251 | 801.51
332.96 K, 2025 kPa, x2 = 0.0857 | 785.34
332.96 K, 3025 kPa, x2 = 0.0857 | 786.35
332.96 K, 3995 kPa, x2 = 0.0857 | 787.3
332.96 K, 5006 kPa, x2 = 0.0857 | 788.3
332.96 K, 6029 kPa, x2 = 0.0857 | 789.27
332.96 K, 6996 kPa, x2 = 0.0857 | 790.2
332.96 K, 8001 kPa, x2 = 0.0857 | 791.2
332.96 K, 9060 kPa, x2 = 0.0857 | 792.17
332.96 K, 10005 kPa, x2 = 0.0857 | 793.04
332.96 K, 11020 kPa, x2 = 0.0857 | 793.96
332.96 K, 12043 kPa, x2 = 0.0857 | 794.89
332.96 K, 13021 kPa, x2 = 0.0857 | 795.74
332.96 K, 14023 kPa, x2 = 0.0857 | 796.64
332.96 K, 15013 kPa, x2 = 0.0857 | 797.55
332.96 K, 15989 kPa, x2 = 0.0857 | 798.3
332.96 K, 17015 kPa, x2 = 0.0857 | 799.17
332.96 K, 18001 kPa, x2 = 0.0857 | 799.98
332.96 K, 18996 kPa, x2 = 0.0857 | 800.8
332.96 K, 20012 kPa, x2 = 0.0857 | 801.65
332.96 K, 21010 kPa, x2 = 0.0857 | 802.47
332.96 K, 22025 kPa, x2 = 0.0857 | 803.27
332.96 K, 22983 kPa, x2 = 0.0857 | 804.05
332.96 K, 24061 kPa, x2 = 0.0857 | 804.91
332.96 K, 25000 kPa, x2 = 0.0857 | 805.68
332.99 K, 11100 kPa, x2 = 0.4972 | 807.58
332.99 K, 12062 kPa, x2 = 0.4972 | 809.21
332.99 K, 13082 kPa, x2 = 0.4972 | 810.88
332.99 K, 14087 kPa, x2 = 0.8663 | 752.33
332.99 K, 14115 kPa, x2 = 0.4972 | 812.58
332.99 K, 15053 kPa, x2 = 0.8663 | 762.95
332.99 K, 15061 kPa, x2 = 0.4972 | 814.12
332.99 K, 16035 kPa, x2 = 0.4972 | 815.66
332.99 K, 16081 kPa, x2 = 0.8663 | 772.94
332.99 K, 17073 kPa, x2 = 0.8663 | 781.43
332.99 K, 17108 kPa, x2 = 0.4972 | 817.32
332.99 K, 18040 kPa, x2 = 0.4972 | 818.75
332.99 K, 18052 kPa, x2 = 0.8663 | 789.26
332.99 K, 19036 kPa, x2 = 0.4972 | 820.22
332.99 K, 19049 kPa, x2 = 0.8663 | 796.49
332.99 K, 20021 kPa, x2 = 0.8663 | 803.04
332.99 K, 20051 kPa, x2 = 0.4972 | 821.73
332.99 K, 21046 kPa, x2 = 0.8663 | 809.49
332.99 K, 21048 kPa, x2 = 0.4972 | 823.17
332.99 K, 22048 kPa, x2 = 0.4972 | 824.6
332.99 K, 22064 kPa, x2 = 0.8663 | 815.51
332.99 K, 23005 kPa, x2 = 0.8663 | 820.74
332.99 K, 23047 kPa, x2 = 0.4972 | 826
332.99 K, 24018 kPa, x2 = 0.4972 | 827.36
332.99 K, 24028 kPa, x2 = 0.8663 | 826.19
332.99 K, 25056 kPa, x2 = 0.4972 | 828.77
332.99 K, 25067 kPa, x2 = 0.8663 | 831.43
333 K, 12077 kPa, x2 = 0.5965 | 809.05
333 K, 13047 kPa, x2 = 0.5965 | 811.32
333 K, 14101 kPa, x2 = 0.5965 | 813.7
333 K, 15079 kPa, x2 = 0.5965 | 815.86
333 K, 16069 kPa, x2 = 0.5965 | 817.96
333 K, 17045 kPa, x2 = 0.5965 | 820
333 K, 18064 kPa, x2 = 0.5965 | 822.1
333 K, 19045 kPa, x2 = 0.5965 | 824.02
333 K, 20044 kPa, x2 = 0.5965 | 825.94
333 K, 21039 kPa, x2 = 0.5965 | 827.8
333 K, 22043 kPa, x2 = 0.5965 | 829.66
333 K, 23048 kPa, x2 = 0.5965 | 831.48
333 K, 24011 kPa, x2 = 0.5965 | 833.21
333 K, 25086 kPa, x2 = 0.5965 | 835.1
333.08 K, 6035 kPa, x2 = 0.1842 | 792
333.08 K, 7047 kPa, x2 = 0.1842 | 793.11
333.08 K, 8021 kPa, x2 = 0.1842 | 794.16
333.08 K, 9035 kPa, x2 = 0.1842 | 795.25
333.08 K, 10030 kPa, x2 = 0.1842 | 796.3
333.08 K, 11057 kPa, x2 = 0.1842 | 797.37
333.08 K, 12025 kPa, x2 = 0.1842 | 798.41
333.08 K, 13041 kPa, x2 = 0.1842 | 799.39
333.08 K, 14034 kPa, x2 = 0.1842 | 800.34
333.08 K, 15074 kPa, x2 = 0.1842 | 801.36
333.08 K, 16022 kPa, x2 = 0.1842 | 802.27
